Assay results: US5869476A, “Pyrimidinone derivatives” (Boryung Pharmaceutical Co., Ltd., priority 1994, dated 1999)

Each molecule was assayed against T1, angiotensin II receptor (Oryctolagus cuniculus, UniProt P34976) (assay: inhibition of angiotensin II induced contraction of isolated rabbit aorta rings). Conditions: test compound incubated 20 minutes, 37° C., pH 7.4, read-out: IC50 (concentration being required to inhibit angiotensin II induced contraction by 50%).
T1 construct: The aorta was cut into 3~4 mm to form ring samples; from tissue; host or cells: isolated aorta rings of New Zealand White rabbits
T1 sequence (P34976 1-359): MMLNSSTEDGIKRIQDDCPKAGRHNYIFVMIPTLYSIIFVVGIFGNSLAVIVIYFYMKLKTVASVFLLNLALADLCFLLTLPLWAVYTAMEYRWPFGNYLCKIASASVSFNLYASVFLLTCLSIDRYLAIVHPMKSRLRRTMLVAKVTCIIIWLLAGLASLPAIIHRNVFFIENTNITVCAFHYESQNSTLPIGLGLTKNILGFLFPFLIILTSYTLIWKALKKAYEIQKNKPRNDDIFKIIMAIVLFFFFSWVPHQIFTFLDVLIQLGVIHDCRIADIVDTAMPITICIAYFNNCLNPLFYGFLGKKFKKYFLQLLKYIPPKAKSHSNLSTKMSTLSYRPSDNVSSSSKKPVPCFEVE
Format: cell-based, New Zealand White rabbit
Procedure: The antagonistic activity of the representative compounds of the invention was evaluated using the methodology describe below.
From New Zealand White rabbits (male or female, 2~2.5 kg), aorta was isolated, and fat and connected tissue were removed therefrom. The aorta was cut into 3~4 mm to form ring samples. The aorta sample was suspended in 20 ml of organ bath (37° C.) containing modified Krebs-Henseleit solution saturated with 95% O2 /5% CO2 (pH 7.4).
The aorta preparation was exposed consecutively to 2 g of tensile strength for 90 minutes intermittently washing the sample with 30 minutes interval and then to 30 mM of KCl to observe contraction response. After washing more than three times, the aorta preparation was again allowed to contract three times for stabilization by adding Angiotensin II ([…]) thereto with 30 minutes interval. The third contraction response to Angiotensin II was considered as control.
10 minutes after the third contraction, the test compound was administered to the aorta preparation, which was incubated for 20 minutes.
Comparing angiotensin II contraction curve obtained from the above inhibition test with that of the control, IC50 (concentration being required to inhibit angiotensin II induced contraction by 50%) was determined for each test compound(Table 1).

| SMILES | IC50 |
| --- | --- |
| CCCCc1nc(C)c(CCC(=O)N2C(C)COCC2C)c(=O)n1Cc1ccc(-c2ccccc2-c2nn[nH]n2)cc1 (stereo not shown) [Compound 79, 2-n-butyl-5-[2'-(3",5"-dimethylmorpholino)carbonylethyl]-6-methyl-3-[[2'-(1H-tetrazol-5-yl)biphenyl-4-yl]methyl]-pyrimidin-4-(3H)-one] | 13.1 nM |
| CCCc1nc(=O)c(CC(=O)O)c(C)n1Cc1ccc(-c2ccccc2-c2nnn[nH]2)cc1 [Compound 11, 2-n-propyl-5-carboxymethyl-6-methyl-1-[[2'-(1H-tetrazol-5-yl)-biphenyl-4-yl]methyl]-pyrimidin-4-(1H)-one] | 7.71 nM |
| CCCCc1nc(C)c(CC(=O)N2CCSC2)c(=O)n1Cc1ccc(-c2ccccc2-c2nn[nH]n2)cc1 [Compound 72, 2-n-butyl-5-thiazolidinocarbonylmethyl-6-methyl-3-[[2'-(1H-tetrazol-5-yl)biphenyl-4-yl]methyl]-pyrimidin-4-(3H)-one] | 9.13 nM |
| CCc1nc(C)c(CC(=O)N(CC)CC)c(=O)n1Cc1ccc(-c2ccccc2-c2nnn[nH]2)cc1 [Compound 4, 2-ethyl-5-diethylaminocarbonylmethyl-6-methyl-3-[[2'-(1H-tetrazol-5-yl)biphenyl-4-yl]methyl]-pyrimidin-4-(3H)-one] | 15.1 nM |
| CCCCc1nc(=O)c(CCC(=O)O)c(CCC)n1Cc1ccc(-c2ccccc2-c2nn[nH]n2)cc1 [Compound 37, 2-n-butyl-5-(2'-carboxyethyl)-6-propyl-1-[[2'-(1H-tetrazol-5-yl)-biphenyl-4-yl]methyl]-pyrimidin-4-(1H)-one] | 115 nM |
| CCCCc1nc(CCC)c(CCC(=O)OCC)c(=O)n1Cc1ccc(-c2ccccc2-c2nn[nH]n2)cc1 [Compound 36, 2-n-butyl-5-(2'-ethoxycarbonylethyl)-6-propyl-3-[[2'-(1H-tetrazol-5-yl)biphenyl-4-yl]methyl]-pyrimidin-4-(3H)-one] | 44.5 nM |
| CCCCc1nc(C)c(CCC(=O)N2CCCCC2C(=O)OCC)c(=O)n1Cc1ccc(-c2ccccc2-c2nn[nH]n2)cc1 (stereo not shown) [Compound 67, 2-n-butyl-5-[2'-(2"-ethoxycarbonylpiperidino)carbonylethyl]-6-methyl-3-[[2'-(1H-tetrazol-5-yl)biphenyl-4-yl]methyl]-pyrimidin-4-(3H)-one] | 30.4 nM |
| CCOC(=O)Cc1c(C)nc(CC)n(Cc2ccc(-c3ccccc3-c3nnn[nH]3)cc2)c1=O [Compound 1, 2-ethyl-5-ethoxycarbonylmethyl-6-methyl-3-[[2'-(1H-tetrazol-5-yl)biphenyl-4-yl]methyl]-pyrimidin-4-(3H)-one] | 9.05 nM |
| CCCCc1nc(C)c(CCC(=O)N2CC=CC2)c(=O)n1Cc1ccc(-c2ccccc2-c2nn[nH]n2)cc1 [Compound 61, 2-n-butyl-5-[2'-(3"-pyrrolino)carbonylethyl]-6-methyl-3-[[2'-(1H-tetrazol-5-yl)biphenyl-4-yl]methyl]-pyrimidin-4-(3H)-one] | 7.85 nM |
| CCCCc1nc(C)c(CCC(=O)N2CCCCC2)c(=O)n1Cc1ccc(-c2ccccc2-c2nn[nH]n2)cc1 [Compound 62, 2-n-butyl-5-[2'-piperidinocarbonylethyl]-6-methyl-3-[[2'-(1H-tetrazol-5-yl)biphenyl-4-yl]methyl]-pyrimidin-4-(3H)-one] | 9.62 nM |
| CCCCc1nc(CC)c(CCC(=O)OCC)c(=O)n1Cc1ccc(-c2ccccc2-c2nn[nH]n2)cc1 [Compound 33, 2-n-butyl-5-(2'-ethoxycarbonylethyl)-6-ethyl-3-[[2'-(1H-tetrazol-5-yl)biphenyl-4-yl]methyl]-pyrimidin-4-(3H)-one] | 11.2 nM |
| CCCCc1nc(C)c(CC(=O)N2CCN(C)CC2)c(=O)n1Cc1ccc(-c2ccccc2-c2nn[nH]n2)cc1 [Compound 76, 2-n-butyl-5-(4'-methylpiperazinocarbonylmethyl)-6-methyl-3-[[2'-(1H-tetrazol-5-yl)biphenyl-4-yl]methyl]-pyrimidin-4-(3H)-one] | 3.59 nM |
| CCCCc1nc(C)c(CC(=O)OCC)c(=O)n1Cc1ccc(-c2ccccc2C(=O)O)cc1 [Compound 38, 2-n-butyl-5-ethoxycarbonylmethyl-6-methyl-3-(2'-carboxy-biphenyl-4-yl)methyl-pyrimidin-4-(3H)-one] | 335 nM |

Continued, values first:

| IC50 | SMILES |
| --- | --- |
| 2.63 nM | CCCCc1nc(C)c(CC(=O)O)c(=O)n1Cc1ccc(-c2ccccc2-c2nnn[nH]2)cc1 [Compound 19, 2-n-butyl-5-carboxymethyl-6-methyl-3-[[2'-(1H-tetrazol-5-yl)-biphenyl-4-yl]methyl]-pyrimidin-4-(3H)-one] |
| 7.6 nM | CCCCc1nc(C)c(CCC(=O)N2CCCC(C)(C)C2)c(=O)n1Cc1ccc(-c2ccccc2-c2nn[nH]n2)cc1 [Compound 65, 2-n-butyl-5-[2'-(3",3"-dimethylpiperidino)carbonylethyl]-6-methyl-3-[[2'-(1H-tetrazol-5-yl)biphenyl-4-yl]methyl]-pyrimidin-4-(3H)-one] |
| 7.26 nM | CCCCc1nc(C)c(CCCC(=O)O)c(=O)n1Cc1ccc(-c2ccccc2-c2nnn[nH]2)cc1 [Compound 30, 2-n-butyl-5-(3'-carboxypropyl)-6-methyl-3-[[2'-(1H-tetrazol-5-yl)biphenyl-4-yl]methyl]-pyrimidin-4-(3H)-one] |
| 3.64 nM | CCCCc1nc(C)c(CC(=O)N2CCCC(C(=O)N(CC)CC)C2)c(=O)n1Cc1ccc(-c2ccccc2-c2nn[nH]n2)cc1 (stereo not shown) [Compound 55, 2-n-butyl-5-(3'-diethylaminocarbonylpiperidinocarbonylmethyl)-6-methyl-3-[[2'-(1H-tetrazol-5-yl)biphenyl-4-yl]methyl]-pyrimidin-4-(3H)-one] |
| 3.6 nM | CCCCc1nc(C)c(CC(=O)N2CCCCCCC2)c(=O)n1Cc1ccc(-c2ccccc2-c2nn[nH]n2)cc1 [Compound 57, 2-n-butyl-5-heptamethyleneiminocarbonylmethyl-6-methyl-3-[[2'-(1H-tetrazol-5-yl)biphenyl-4-yl]methyl]-pyrimidin-4-(3H)-one] |
| 3.36 nM | CCCCc1nc(C)c(CCC(=O)N2CCC[C@H]2C(=O)OC)c(=O)n1Cc1ccc(-c2ccccc2-c2nn[nH]n2)cc1 [Compound 59, 2-n-butyl-5-[2'-((S)-2"-methoxycarbonylpyrrolidino)-carbonylethyl]-6-methyl-3-[[2'-(1H-tetrazol-5-yl)biphenyl-4-yl]-methyl]-pyrimidin-4-(3H)-one] |
| 3.56 nM | CCCCc1nc(C)c(CC(=O)N2CCCC(C(=O)OCC)C2)c(=O)n1Cc1ccc(-c2ccccc2-c2nn[nH]n2)cc1 (stereo not shown) [Compound 52, 2-n-butyl-5-(3'-ethoxycarbonylpiperidinocarbonylmethyl)-6-methyl-3-[[2'-(1H-tetrazol-5-yl)biphenyl-4-yl]methyl]-pyrimidin-4-(3H)-one] |
| 6.24 nM | CCCCc1nc(C)c(CC(=O)N2CCCCC2C(=O)OCC)c(=O)n1Cc1ccc(-c2ccccc2-c2nn[nH]n2)cc1 (stereo not shown) [Compound 53, 2-n-butyl-5-(2'-ethoxycarbonylpiperidinocarbonylmethyl)-6-methyl-3-[[2'-(1H-tetrazol-5-yl)biphenyl-4-yl]methyl]-pyrimidin-4-(3H)-one] |
| 2.08 nM | CCCCc1nc(C)c(CC(=O)N2CCC[C@H]2C(N)=O)c(=O)n1Cc1ccc(-c2ccccc2-c2nn[nH]n2)cc1 [Compound 43, 2-n-butyl-5-[(S)-2'-aminocarbonylpyrrolidinocarbonylmethyl]-6-methyl-3-[[2'-(1H-tetrazol-5-yl)biphenyl-4-yl]methyl]-pyrimidin-4-(3H)-one] |
